# Measured values as given in patent US20230184743A1, “SCREENING METHODS TO IDENTIFY SMALL MOLECULE COMPOUNDS THAT PROMOTE OR INHIBIT THE GROWTH OF CIRCULATING TUMOR CELLS, AND USES THEREOF” (University of Southern California, priority 2020, published 2023).
# Entries after “also recorded” stand apart in the source; their conditions may differ.
# Assays:
# [1] = tested on: single CTCs from 4 patient-derived CTC lines (BRx07, BRx42, BRx50, and BRx68); test: Validation of candidate compounds: single CTC proliferation over 24 days (AUC); assay type: cell-based, human
# Description: (§1) Cell culture. CTC lines were previously derived from metastatic breast cancer patients. CTC lines were cultured in ultra-low attachment plates with RPMI 1640 medium, supplemented with EGF (20 ng/mL), bFGF (20 ng/mL), 1×B27 and 1× antibiotic/antimycotic, in 4% 02 and 5% CO2. Single CTCs were cultured in GravityTRAP™ ULA 96 well Plates (PerkinElmer). Wells on the edges of the plates were not used to avoid influence from evaporation. Media with fresh compounds were exchanged every 3 days by inserting pipet tips onto the platform of the wells to prevent accidentally aspirating suspended CTCs at the bottom. CTC numbers were counted manually under an inverted microscope every 6 days.
# FACS sorting. Cells were pelleted and resuspended into single cell suspension in 1% BSA in PBS buffer with 7-AAD. Live single CTCs were sorted directly into 96-well GravityTRAP™ ULA Plates using a MoFlo cell sorter (Beckman Coulter). An inverted microscope was used to manually confirm that there was 1 CTC per well, 1 hour after sorting.
# Compounds screening. Compounds were from the StemSelect library obtained from the Choi Family Therapeutic Screening Facility at the Eli and Edythe Broad CIRM Center for Regenerative Medicine and Stem Cell Research at USC. Each compound was given a code to ensure unbiased assessment and blinded to the investigators. Compound information is listed in Appendix, at Table 1 of US Provisional Application No. U.S. 62/990,445, incorporated herein by reference). In the first-round screening, compounds were used with […] concentration. Stocks of compounds (10 mM concentration in DMSO) were stored in aliquots at −80° C. All compounds were thawed and refrozen for a maximum of 2 times. In the second-round validation, fresh compounds were dissolved in DMSO (Millipore sigma), and aliquots were stored at −20° C. and used only once without refreezing. Only wells started from single cells on day 0 after sorting were used in the screening experiment. Data collection was done in batches.
# (§2) Statistical analysis. […] AUC was calculated for each well in each batch, by plotting days in the x-axis and the corresponding number of cells in the y-axis, then drawing a line to connect the number of cells from the starting count day to the next count day until the end day, and finally calculating the area under this line as the sum of areas of trapezoids. […] Statistical tests were performed using R. For absolute number of cells quantification, total number of cells at end of experiment in each well in each batch was compared between treated cells and untreated control and significance was analyzed with Student t test. For other experiments, data were analyzed with Student t test, and represent the means±SEM of at least triplicate samples or averages ±SD of independent analyses, as indicated. […]
# [2] = tested on: GFP-Luciferase tagged BRx68 single clones; test: Xenograft assay of single cell clones generated with or without NAC; assay type: in vivo; settings: clones generated with 300 μM NAC for 24 days vs control clones; mammary fat pad of female NSG mice
# Description: Single CTC clones. NAC clones were generated by treating single CTCs with 300 μM NAC media for 24 days before switching to regular CTC media. Control single clone lines were established in the same batch using regular CTC media.
# Xenograft assay and Hematoxyline & Eosin staining. Six-week old female NSG mice (Jackson Laboratory) were anesthetized with isoflurane and 20,000 GFP/luc-positive single clone cells in 100 μL of 1:1 PBS and Corning® Matrigel® Matrix (phenol-red free) were injected into the fourth mammary fat pad. To evaluate the growth of primary tumors, mice were intraperitoneally injected with 150 μL of d-Luciferin substrate at 30 mg/mL (Sid Labs), and imaged within 15 minutes. Signals from luciferase-tagged cells were monitored at day 0 after injection and weekly by in vivo imaging using IVIS Lumina II (Perkin Elmer) for 5 weeks. Mice were sacrificed after 8 weeks, and their organs were dissected and imaged. Primary tumors and organs were collected and fixed with 10% formalin overnight and sectioned for 5 μm thickness. H&E staining was performed using Varistain Gemini ES Automated Slide Stainer in USC's Histology Laboratory (HIST). Images were taken with a 20× objective in Keyence (BZ-II Analyser, Keyence).
# Validation on spiked-in CTCs. To mimic the CTC isolation procedure, spiked-in experiments were performed with 3 CTC lines (BRx42, BRx50 and BRx68) into healthy donors' blood. […]
# [3] = tested on: single BRx68 cells; test: Single CTC proliferation over 24 days (AUC), BRx68 line; assay type: cell-based, human; settings: two batches, 200 μM-300 μM NAC, 24 days
# Description: as §1
# FACS sorting. […]
# as §2, with “test.” for “test. For other experiments, data were analyzed with Student t test, and represent the means±SEM of at least triplicate samples or averages ±SD of independent analyses, as indicated.”
smiles,measurement,setting,value
"CC(=O)N[C@@H](CS)C(=O)O [NAC, N-acetyl-L-cysteine]",additional growth advantages from treatment once a single cell colony reaches a critical size,[1]; after initial expansion from single CTCs,does not seem to confer additional growth advantages
same,single CTC expansion compared to controls,"[1]; all 4 CTC lines, NAC 300 μM, P1C2 1 μM or 0.5 μM, 24 days",promote growth of single CTCs; also recorded: statistically significant improvement
same,tumorigenicity of single cell clones (tumor growth kinetics and histology),[2],dose not change the tumorigenicity; also recorded: did not significantly affect
same,single CTC proliferation at various NAC concentrations,[3],most significant effect in promoting single CTC proliferation
